Entries after “also recorded” stand apart in the source; their conditions may differ. Like-named read-outs stand apart in the source and are kept apart here.

The source of these data is US20230181512A1, “METHODS FOR THE TREATMENT OF INFANTILE SPASMS USING MEDIUM CHAIN TRIGLYCERIDES” (Cerecin Inc., priority 2020, published 2023).

Data set [1] deals with Infantile spasms (IS) patients. The settings on record: cited from earlier work.
For data set [2] the following is noted: cited from earlier work; for adverse events (AEs) associated with treatment: IS treatment, refs [32], [1].
In data set [3] the test system is rat triple hit model of IS. Put plainly: Rat triple hit model of IS (DOX, LPS, PCPA): spasm frequency. The format is in vivo, Sprague Dawley rats. The settings on record: for spasms/hr / spasms/hour: P5-P7, scored on P7; for spasms/hour: vehicle/milk only mean 4.5 (SD 2.3). An excerpt: Various animal models of IS have been created as tools to test efficacy of various interventions. One such example is a rat triple hit model developed by Scantlebury and co-authors. This model was developed “based on evidence that structural or functional abnormalities in cortical or subcortical structures may be necessary to produce IS.” [11]. The model uses three lesions to induce infantile spasms. The lesions include doxorubicin (DOX), lipopolysaccharide (LPS) and p-chlorophenylalanine (PCPA). DOX is an inhibitor of topo isomerase 2 that results in diffuse brain damage involving the forebrain and brainstem when injected intraventricularly. LPS can stimulate the release of inflammatory cytokines in various cell types, leading to an acute inflammatory response. Intracerebral injection of LPS in rat pups activates inflammatory cascades resulting in hypomyelination, white matter rarefaction and necrosis. PCPA depletes serotonin by inhibiting the enzyme tryptophan hydroxylase.
In accordance with embodiments of the disclosure, tricaprilin was tested for its ability to reduce spasm frequency in this triple hit model. These studies were done using timed pregnant Sprague Dawley rats. Animals were maintained in a 12 hr light/dark cycle and had free access to food and water. The day of birth was considered as P0. Animal care and use conformed to institutional policy and guidelines of the American Association for the Accreditation of Laboratory Animal Care. All procedures and experiments were performed in accordance with the National Institute of Health Guide for the Care and Use of Laboratory Animals.
At postnatal day (P) 3 DOX (5 μg/2.5 μl) and LPS (3 μg/1.5 μl) were given intracerebrally and at P5 PCPA is given intraperitoneally (i.p.) (200 mg/kg). Intracerebral infusions of DOX and LPS were done stereotaxically under isoflurane anesthesia. Pups were positioned in a stereotaxic frame for neonatal rat surgery (Benchmark Angle One, MyNeurolab.com, St Louis Mo.). DOX was injected into the right lateral ventricle followed by LPS into the right parietal cortex. Pups were individually placed in beakers warmed in a water bath and filled with bedding (31-33° C.) and fed via a cheek cannula. Spasms begin at day P4 and continue to P13.
Tricaprilin was administered either by oral gavage (administered twice a day), or steadily in milk via the cheek cannula, from P5-P7. […] For gavage, tricaprilin was administered at 5 ml/kg/day and 10 ml/kg/day. When mixed with milk, tricaprilin was administered at 5, 10 and 30 ml/kg/day. Each group comprised 5 animals. Spasms were recorded and scored on P7, urine ketones collected on P7 at 6 and 12 hours after gavage and same timepoints for milk fed pups. The behaviors of the pups were monitored using a video camera for 2 hours twice daily from P4 (first post-operative day) until P20.
The frequency of spasms varied by concentration of tricaprilin used. […] With reference to FIG. 2B, when tricaprilin was mixed with milk at 5 ml/kg/day spasms/hr were 3.1 (SD 1.7, pvalue=0.300), at 10 ml/kg/day 3.0 (SD 0.8, pvalue=0.139), and at 30 ml/kg/day 1.75 (SD 1.7, pvalue 0.079).

Take `C[C@]12C=CC(=O)C=C1CC[C@@H]1[C@@H]2[C@@H](O)C[C@@]2(C)[C@H]1CC[C@]2(O)C(=O)CO` [Prednisolone]: the “% of patient spasms stopped” value in data set [1] (40-60 mg/day, N 30, ref [17]) is recorded as 70%.
In the case of `C[C@]12C=CC(=O)C=C1CC[C@@H]1[C@@H]2C(=O)C[C@@]2(C)[C@H]1CC[C@]2(O)C(=O)CO` [Prednisone], the “% of patient spasms stopped” value in data set [1] (2 mg/kg/day, N 12, ref [19]) is 33%.
On to `C=CC(N)CCC(=O)O` (stereo not drawn) [VGB, Vigabatrin], for which, in data set [2], the “adverse events (AEs) associated with treatment” value is “sedation, irritability, insomnia and hypotonia”. For the same compound, in data set [2] (persist even with discontinuation of the drug, ref [1]), the visual field defects entry was “serious visual field defects that are permanent”. The “% of patient spasms stopped” value in data set [1] (18-36 mg/kg/day, N 75, ref [18]) was 11%; in data set [1] (100-148 mg/kg/day, N 67, ref [18]), 36%; in data set [1] (100-150 mg/kg/day, N 52, ref [17]), 54%.
As to `CCCCCCCC(=O)OCC(COC(=O)CCCCCCC)OC(=O)CCCCCCC` [tricaprilin], the spasms/hr in data set [3] (mixed with milk 5 ml/kg/day, SD 1.7, pvalue=0.300) is 3.1 spasms/hr; in data set [3] (mixed with milk 10 ml/kg/day, SD 0.8, pvalue=0.139) it was 3.0 spasms/hr; in data set [3] (mixed with milk 30 ml/kg/day, SD 1.7, pvalue 0.079) it was 1.75 spasms/hr. Further, the spasms/hour in data set [3] (oral gavage 5 ml/kg/day, SD 1.6, pvalue 0.155) is on record as 2.3 spasms/hour; in data set [3] (oral gavage 10 ml/kg, SD 0.9, pvalue=0.036), 1.4 spasms/hour. Besides, in data set [3] (oral gavage and feeding in milk), the “effect on spasms compared to vehicle (in words)” value is “reduction in spasms/hr; also recorded: reduces spasms”.
For “Adrenocorticotropic hormone (SYSMEHFRWGKPVGKKRRPVKVYPNGAEDESAEAFPLEF; Corticotropin; UniProt P01189 138-176, looked up) [ACTH, first line hormonal therapy for IS]”, in data set [2], the “adverse events (AEs) associated with treatment” value was “hypertension, immune suppression, infection, electrolyte imbalances, GI disturbances, ocular opacities, hypertrophic cardiomyopathy, cerebral atrophy and growth impairment”. Further, the “% of patient spasms stopped” value in data set [1] (20-20 IU/day, N 24, ref [16]) is given as 58%; in data set [1] (150 IU/m2/day divided B.I.D., N 15, ref [13]), 93%; in data set [1] (150 IU/m2/day, N 26, ref Hrachovy, 1994 #681}) it was 50%. Besides, the “subjects responded with both clinical cessation of spasms and abolition of hypsarrhythmia on EEG” value in data set [1] (high-dose natural ACTH 150 IU/m2/day given twice daily, 2 weeks then taper, Baram et al. [13]) is given as 87%.
